# Assay results as given in patent US20230391841A1, “MACROCYCLIC PEPTIDES” (Herantis Pharma OYJ, priority 2019, published 2023).
# Bridge positions count the residues as written; N and C are the ends. Ends that are not written are not given here. Peptide text beside a SMILES is read from it.
# Key:
# GRP78-NBD = test: Binding to GRP78-NBD Kd (μM)
# Excerpt: Table printed on a drawing sheet, FIG. 5B
# Head of the field: Binding to GRP78-NBD Kd (μM)
# GRP78-NBD is shown in a translucent surface model along with its cartoon trace. The Cys-Cys bond in compound 12 (SEQ ID NO: 12) is shown in sticks.
# The binding affinities are obtained by a microscale thermophoresis-based cell-free assay.
# GSK2606414 was used to inhibit PERK signaling and KIRA6 to inhibit IRE1alpha signaling. * p<0.05, ** p<0.01, *** p<0.001, **** p<0.0001 one-way ANOVA is test with post-hoc Fisher's LSD test for pairwise comparison vs MPP+ negative control. # p<0.05, ## p<0.01, ### p<0.001, #### p<0.0001 one-way ANOVA test with post-hoc Fisher's LSD test for pairwise comparison between effect of compound alone and its combination with UPR signal inhibitor.
# Where the first naming reader finds the target: head: Binding to GRP78-NBD Kd (μM)
# [1] = In vivo pharmacokinetics after intravenous administration to rats; parameters: species or system male Sprague-Dawley rats; details: rat, 5 mg/kg intravenous bolus, male Sprague-Dawley rats
# Procedure: The clearance and elimination of peptides can be mediated by multiple processes in vivo, including metabolism and renal elimination.
# Test compounds were intravenously (i.v.) administered to male Spraque-Dawley rats (about is six weeks old, n=3 per compound) at 5 mg/kg. Blood samples were collected from jugular vein through implanted in-dwelling catheters (250 pl blood) into labelled polypropylene tubes containing anticoagulant (heparin) at 2 min, 5 min,15 min, 30 min, 1 h, 2 h and 4 h after compound administration and held on wet ice for a maximum of 30 minutes. The blood samples were centrifuged for plasma separation (4 °C, 21100 G, 5 min). Tolbutamide 500ng/ml with 10% TFA in acetonitrile or in MeCN was used as an internal standard solution.
# The standard samples were prepared into rat plasma by spiking the matrix into concentrations 2-10 000 ng/ml of the analyte, respectively, and otherwise treated as the samples. To 50 pl aliquots of sample plasma was added 200 pl of internal standard. Samples were mixed (150 rpm, 15 min) and centrifugated (3000 rpm, 15min). The analytical method was optimized for reaction monitoring chromatographic (peak shape & retention) shifts and mass spectrometric properties (ionization efficiency, MS/MS detection). Supernatants were analyzed by UHPLC-TOF mass spectrometry using electrospray ionization.
# [2] = test system: dopaminergic TH-positive neurons injured with MPP+; test: Neuroprotective effect on dopaminergic TH-positive neurons injured with MPP+ (primary mesencephalic culture); assay type: cell-based, rat
# Procedure: Neuroprotective effects of compounds 1-26 (SEQ ID NO: 1-26) were tested in an in vitro model in which primary cultures of rat embryonic mesencephalic neurons were stressed with MPP+ , the active metabolite of neurotoxin 1-methyl-4-phenyl-1,2,3,6-tetrahydropyridine (MPTP). MPP+ kills dopaminergic (TH-positive) neurons via a variety of toxic mechanisms, including mitochondrial dysfunction, generation of peroxynitrite, oxidative stress, ER stress and induction of apoptosis.
# Culture of mesencephalic neurons. Rat dopaminergic neurons were cultured as described by Visanji et al., 2008. Briefly, the midbrains obtained from 15-day-old rat embryos (Janvier, France) were dissected, and the ventral portion of the mesencephalic flexure, a region of the developing brain rich in dopaminergic neurons, was used for the cell preparations. The midbrain cells were dissociated by trypsinization for 20 min at 37° C. (solution at a final concentration of 0.05% trypsin and 0.02% EDTA). The reaction was stopped by adding Dulbecco's modified Eagle's medium (DMEM) containing DNAase I grade II (0.5 mg/mL) and 10% of fetal calf serum (FCS). Cells were then mechanically dissociated by 3 passages through a 10 ml pipette. Cells were then centrifuged at 180×g for 10 min at +4° C. on a layer of BSA (3.5%) in L15 medium. The cell pellets were re-suspended in a defined culture serum-free medium consisting of Neurobasal (Invitrogen) supplemented with B27 (2%), L-glutamine (2 mM) and 2% of PS solution and 1Ong/ml of Brain-derived neurotrophic factor (BDNF) and 1 ng/mL of Glial-Derived Neurotrophic Factor (GDNF). Viable cells were counted in a Neubauer cytometer using the trypan blue exclusion test. The cells were seeded at a density of 40 000 cells/well in 96 well-plates (pre-coated with poly-L-lysine) and maintained in a humidified incubator at 37° C. in 5% CO2/95% air atmosphere. Half of the medium was changed every 2 days with fresh medium. On 96-wells plates, only 60 wells are used. To avoid any edge effect, the first and last lines and columns were not used for culture and were filled with sterile water.
# CDNF as well as linear and macrocyclic compounds […] (SEQ ID NOs: 1-26) were tested. On day 6 of culture, the compounds were dissolved in culture medium and then pre-is incubated with mesencephalic neurons for 4 hours before the MPP+ application. Four hours after the preincubation of the compounds, MPP+ was added to a final concentration of 4 pM, diluted in control medium still in presence of compounds for 48 h.
# 48 h after intoxication, the cells were fixed by a solution of 4% paraformaldehyde in PBS, pH 7.3 for 20 min at room temperature. The cells were washed twice in PBS, and then permeabilized and non-specific sites were blocked with a solution of PBS containing 0.1% of saponin and 1% FCS for 15 min at room temperature. Next, the cells were incubated with (a) a monoclonal antibody anti-Tyrosine Hydroxylase (TH) produced in mouse at dilution of 1:10000 and with (b) a polyclonal antibody anti-alpha-synuclein (α-syn) antibody produced in rabbit at dilution of 1:400 in PBS containing 1% FCS, 0.1% saponin, for 2 h at room temperature.
# 48 h after intoxication, the cell culture supernatant was removed, and the cells fixed by a solution of 4% paraformaldehyde in PBS, pH 7.3 for 20 min at room temperature. The cells were washed twice in PBS, and then permeabilized and non-specific sites were blocked with a solution of PBS containing 0.1% of saponin and 1% FCS for 15 min at room temperature. Then, the cells were incubated with a) a monoclonal Anti-Tyrosine Hydroxylase (TH) antibody produced in mouse at dilution of 1:10000 in PBS containing 1% FCS, 0.1% saponin, for 2 hours at room temperature, and b) a polyclonal anti-postsynaptic density protein-95 (PSD-95) antibody produced in rabbit at dilution of 1:200 in PBS containing 1% FCS, 0.1% saponin, for 2 h at room temperature. This antibody stains specifically synapses. […]
molecule,measurement,setting,value
VDLKKLRVKELKKILDDWGETCKGCAE (disulfide 22-25) [Compound 3],Kd,GRP78-NBD,290 nM
VDLRKMRVAELKQILHSWGEECRACAE (disulfide 22-25) [Compound 1],Kd,GRP78-NBD,60 nM
CC[C@H](C)[C@H](NC(=O)[C@H](CCCCN)NC(=O)[C@H](CCCCN)NC(=O)[C@H](CC(C)C)NC(=O)[C@H](CCC(=O)O)NC(=O)[C@H](CCCCN)NC(=O)[C@@H](NC(=O)[C@H](CCCNC(=N)N)NC(=O)[C@H](CC(C)C)NC(=O)[C@H](CCCCN)NC(=O)[C@H](CCCCN)NC(=O)[C@H](CC(C)C)NC(=O)[C@H](CC(=O)O)NC(=O)[C@@H](N)C(C)C)C(C)C)C(=O)N[C@@H](CC(C)C)C(=O)N[C@@H](CC(=O)O)C(=O)N[C@@H](CC(=O)O)C(=O)N[C@@H](Cc1c[nH]c2ccccc12)C(=O)NCC(=O)N[C@@H](CCC(=O)O)C(=O)N[C@H](C(=O)N[C@H]1CSSC[C@@H](C(=O)N[C@@H](C)C(=O)N[C@@H](CCC(=O)O)C(=O)O)NC(=O)CNC(=O)[C@H](CCCCN)NC1=O)[C@@H](C)O [Compound 3] (H-VDLKKLRVKELKKILDDWGETCKGCAE-OH; disulfide 22-25),AUC(0-inf),[1]; in vivo,4150 ng·h/mL
same,MRT,[1]; in vivo,1.07 min
same,Vd,[1]; in vivo,0.02 L/kg
same,half-life,[1]; in vivo,4.52 min
same,clearance,"[1]; plasma, read-out: CI",20.1 mL/min/kg
"CDNF: full-length cerebral dopamine neurotrophic factor protein (rhCDNF), positive reference in the MPP+ neuroprotection model",number of α-Syn inclusions (alpha-synuclein aggregates) in TH-positive neurons,[2]; primary rat mesencephalic culture after MPP+ injury,reducing accumulation
same,"protection of TH-positive neurons, their neurites and synapses from MPP+ toxicity","[2]; primary rat mesencephalic culture, 4 h preincubation, MPP+ 48 h",neuroprotective
WGETCKGCAEKS (disulfide 5-8) [Compound 13],Kd,GRP78-NBD,1080 nM
GEECRACAEKT (disulfide 4-7) [Compound 15],Kd,GRP78-NBD,3210 nM
KSILDDWGETCKGCAE (disulfide 11-14) [Compound 9],Kd,GRP78-NBD,11000 nM
